Assay results taken from DBAASP.
Converted amounts (≈) assume the structure as drawn.

Tests used:
Assay in all cases: ≥ marks a high value that may be exact or a test limit, other limits are often not marked, values filed in µg/mL are converted to µM
[1] = tested on: Nocardia asteroides 201118
[2] = tested on: Staphylococcus aureus ATCC 25923
[3] = tested on: Acinetobacter baumannii ATCC 19606
[4] = tested on: Escherichia coli ATCC 25922
[5] = tested on: Escherichia coli ATCC 8739
[6] = tested on: Klebsiella pneumoniae ATCC 13883
[7] = tested on: Pseudomonas aeruginosa ATCC 47085
[8] = tested on: Staphylococcus aureus ATCC 29213
[9] = tested on: Candida albicans ATCC 90028
[10] = tested on: Enterobacter cloacae HNTCC 53001
[11] = tested on: Enterococcus faecalis ATCC 29212
[12] = tested on: Klebsiella pneumoniae KK3 9904
[13] = tested on: Proteus mirabilis ATCC 25933
[14] = tested on: Pseudomonas aeruginosa ATCC 27853
[15] = tested on: Staphylococcus aureus NCTC 8325
[16] = tested on: Staphylococcus epidermidis RP62A
Bacillus subtilis = tested on: Bacillus subtilis
Escherichia coli HB101 = tested on: Escherichia coli HB101
Pseudomonas aeruginosa = tested on: Pseudomonas aeruginosa
Salmonella typhimurium = tested on: Salmonella typhimurium
Staphylococcus aureus = tested on: Staphylococcus aureus
[17] = tested on: Micrococcus luteus ATCC 4698
[18] = tested on: Candida albicans ATCC 64550
[19] = tested on: Pseudomonas aeruginosa ATCC 9027
[20] = tested on: Staphylococcus aureus ATCC 29737
[21] = tested on: Staphylococcus aureus USA 100
[22] = tested on: Staphylococcus aureus USA 300
[23] = tested on: Staphylococcus epidermidis ATCC 12228
[24] = tested on: Staphylococcus aureus ATCC 33591
[25] = tested on: Staphylococcus epidermidis ATCC 35984
Escherichia coli W160-37 = tested on: Escherichia coli W160-37
[26] = tested on: Corynebacterium glutamicum ATCC 13032
[27] = tested on: Staphylococcus aureus ATCC 9144

CC[C@H](C)[C@H](NC(=O)[C@H](C)NC(=O)CNC(=O)[C@@H](NC(=O)[C@H](CC(C)C)NC(=O)[C@H](CC(C)C)NC(=O)[C@@H]1CCCN1C(=O)[C@H](CC(C)C)NC(=O)[C@@H](N)Cc1ccccc1)C(C)C)C(=O)N[C@@H](CO)C(=O)N[C@@H](CO)C(=O)N[C@H](C(=O)N[C@@H](CC(C)C)C(=O)N1CCC[C@H]1C(=O)N[C@@H](CCCCN)C(=O)N[C@H](C(=O)N[C@@H](Cc1ccccc1)C(N)=O)[C@@H](C)CC)[C@@H](C)CC [FLPLLVGAISSILPKIF]
MIC [1]: 6.3 µM (≈ 11.5 µg/mL)
MIC [2]: 12.5 µM (≈ 22.8 µg/mL)

CC[C@H](C)[C@H](NC(=O)CN)C(=O)NCC(=O)N[C@@H](C)C(=O)N[C@H](C(=O)N[C@@H](CC(C)C)C(=O)N[C@@H](CCCCN)C(=O)N[C@H](C(=O)N[C@@H](CC(C)C)C(=O)N[C@H](C(=O)N[C@H](C(=O)NCC(=O)N[C@@H](CC(C)C)C(=O)N1CCC[C@H]1C(=O)N[C@@H](C)C(=O)N[C@@H](CC(C)C)C(=O)N[C@H](C(=O)N[C@@H](CO)C(=O)N[C@@H](Cc1c[nH]c2ccccc12)C(=O)N[C@H](C(=O)N[C@@H](CCCCN)C(=O)N[C@@H](CCCN=C(N)N)C(=O)N[C@@H](CCCCN)C(=O)N[C@@H](CCCN=C(N)N)C(=O)N[C@@H](CCC(N)=O)C(=O)N[C@@H](CCC(N)=O)C(=O)O)[C@@H](C)CC)[C@@H](C)CC)[C@@H](C)O)[C@@H](C)O)C(C)C)C(C)C [GIGAVLKVLTTGLPALISWIKRKRQQ]
MIC [3]: 4.1 µM (≈ 11.7 µg/mL)
MIC [4]: 6.3 µM (≈ 17.9 µg/mL)
MIC [5]: 4.52 µM (≈ 12.9 µg/mL)
MIC [6]: 3.5 µM (≈ 9.97 µg/mL)
MIC [7]: 4.9 µM (≈ 14 µg/mL)
MIC [8]: 3.83 µM (≈ 10.9 µg/mL)

CC[C@H](C)[C@H](NC(=O)CNC(=O)[C@H](CCCCN)NC(=O)[C@H](Cc1ccccc1)NC(=O)[C@@H](NC(=O)[C@H](CCCCN)NC(=O)[C@H](CCCCN)NC(=O)[C@H](CC(C)C)NC(=O)[C@H](C)NC(=O)[C@H](CCCCN)NC(=O)[C@H](CC(C)C)NC(=O)CN)C(C)C)C(=O)N[C@@H](Cc1cnc[nH]1)C(=O)N[C@@H](CCCCN)C(=O)N[C@@H](C)C(=O)N[C@H](C(=O)N[C@@H](CCCCN)C(=O)N[C@@H](CC(C)C)C(=O)N[C@H](C(=O)N[C@@H](CC(N)=O)C(=O)N[C@@H](CC(N)=O)C(=O)N[C@@H](Cc1cnc[nH]1)C(=O)N[C@H](C(=O)N[C@@H](CCC(N)=O)C(=O)O)C(C)C)[C@@H](C)CC)[C@@H](C)CC [GLKALKKVFKGIHKAIKLINNHVQ]
MIC [9]: ≥ 80 µM
MIC [10]: 5 µM (≈ 13.5 µg/mL)
MIC [11]: > 80 µM
MIC [4]: 5 µM (≈ 13.5 µg/mL)
MIC [12]: 5 µM (≈ 13.5 µg/mL)
MIC [13]: ≥ 80 µM
MIC [14]: 5 µM (≈ 13.5 µg/mL)
MIC [15]: 20 µM (≈ 54 µg/mL)
MIC [16]: 10 µM (≈ 27 µg/mL)

CC[C@H](C)[C@H](NC(=O)[C@@H](NC(=O)[C@@H]1CCCN1C(=O)[C@@H](NC(=O)[C@@H]1CCCN1C(=O)[C@H](CCCCN)NC(=O)[C@H](CCCCN)NC(=O)[C@H](CO)NC(=O)CN)C(C)C)[C@@H](C)CC)C(=O)N[C@@H](Cc1ccc(O)cc1)C(=O)N[C@H]1CSSC[C@@H](C(=O)N[C@@H](CCC(N)=O)C(=O)N[C@@H](CCCN=C(N)N)C(=O)N[C@@H](CCSC)C(=O)O)NC(=O)[C@H](CCCCN)NC(=O)[C@H]([C@@H](C)O)NC(=O)[C@H](CCCN=C(N)N)NC(=O)[C@H](CCCN=C(N)N)NC(=O)[C@H](CC(N)=O)NC1=O [GSKKPVPIIYCNRRTKCQRM]
MIC (Bacillus subtilis): 5.2 µM (≈ 12.4 µg/mL)
MIC (Escherichia coli HB101): 2.6 µM (≈ 6.18 µg/mL)
MIC (Pseudomonas aeruginosa): 5.2 µM (≈ 12.4 µg/mL)
MIC (Salmonella typhimurium): 1.3 µM (≈ 3.09 µg/mL)
MIC (Staphylococcus aureus): 20.8 µM (≈ 49.4 µg/mL)

CC[C@H](C)[C@H](N)C(=O)N[C@@H](C)C(=O)N[C@@H](CCC(N)=O)C(=O)N[C@@H](CCC(N)=O)C(=O)N[C@@H](C)C(=O)N[C@@H](C)C(=O)N[C@@H](CC(N)=O)C(=O)N[C@H](C(=O)N[C@@H](C)C(=O)N[C@@H](C)C(=O)N[C@H](C(=O)N[C@@H](C)C(=O)N[C@@H](CCCN=C(N)N)C(=O)NCC(=O)O)[C@@H](C)O)C(C)C [IAQQAANVAATARG]
MIC [17]: 8.84 µM (≈ 11.9 µg/mL)

CC[C@H](C)[C@H](N)C(=O)N[C@@H](CCCCN)C(=O)N[C@H](C(=O)N[C@@H](CCCCN)C(=O)N[C@H](C(=O)N[C@@H](CCCCN)C(=O)N[C@H](C(=O)N[C@@H](CCCCN)C(N)=O)[C@@H](C)CC)[C@@H](C)CC)[C@@H](C)CC [IKIKIKIK]
MIC [18]: 3.13 µM (≈ 3.07 µg/mL)
MIC [9]: 1.56 µM (≈ 1.53 µg/mL)
MIC [4]: 31.8 µM (≈ 31.3 µg/mL)
MIC [19]: 6.25 µM (≈ 6.14 µg/mL)
MIC [20]: ≥ 127 µM
MIC [21]: 25 µM (≈ 24.6 µg/mL)
MIC [22]: 25 µM (≈ 24.6 µg/mL)
MIC [23]: 2.03 µM (≈ 2 µg/mL)

CC(C)[C@H](NC(=O)[C@H](Cc1ccccc1)NC(=O)[C@H](C)NC(=O)[C@H](CCCCN)NC(=O)CNC(=O)[C@H](Cc1ccccc1)NC(=O)[C@H](CCCCN)NC(=O)[C@H](CCCCN)NC(=O)[C@H](C)NC(=O)[C@H](CCCCN)NC(=O)[C@@H](N)CCCCN)C(=O)N[C@@H](CCCCN)C(N)=O [KKAKKFGKAFVK]
MIC [14]: > 371 µM
MIC [2]: > 371 µM
MIC [24]: ≥ 371 µM
MIC [25]: ≥ 371 µM

CC(C)C[C@H](NC(=O)[C@H](CCCCN)NC(=O)[C@H](CCCCN)NC(=O)[C@H](Cc1ccccc1)NC(=O)[C@H](Cc1ccccc1)NC(=O)[C@H](CCCCN)NC(=O)[C@H](CCCCN)NC(=O)[C@H](C)NC(=O)[C@H](CCCN=C(N)N)NC(=O)[C@@H](N)CCCCN)C(=O)N[C@@H](CCCCN)C(N)=O [KRAKKFFKKLK]
MIC [18]: ≥ 100 µM

NCCCC[C@H](NC(=O)[C@H](CO)NC(=O)[C@H](Cc1cnc[nH]1)NC(=O)[C@H](CCCN=C(N)N)NC(=O)[C@H](Cc1cnc[nH]1)NC(=O)[C@H](CO)NC(=O)[C@H](CCC(N)=O)NC(=O)[C@H](Cc1ccc(O)cc1)NC(=O)[C@@H](N)CC(N)=O)C(=O)N[C@@H](CO)C(=O)O [NYQSHRHSKS]
MIC [17]: ≥ 75 µM

CC[C@H](C)[C@H](NC(=O)[C@H](Cc1c[nH]c2ccccc12)NC(=O)[C@H](CCCCN)NC(=O)[C@H](CC(C)C)NC(=O)[C@H](Cc1ccccc1)NC(=O)[C@@H](NC(=O)[C@H](CCCCN)NC(=O)[C@H](CC(C)C)NC(=O)[C@H](CC(C)C)NC(=O)[C@H](CCCCN)NC(=O)[C@@H]1CCCN1)[C@@H](C)O)C(=O)NCC(=O)O [PKLLKTFLKWIG]
MIC (Escherichia coli W160-37): 25 µM (≈ 36.1 µg/mL)
MIC (Staphylococcus aureus): 14 µM (≈ 20.2 µg/mL)

CC[C@H](C)[C@H](NC(=O)[C@@H]1CCCN1C(=O)[C@H](CCCCN)NC(=O)[C@@H]1CCCN1C(=O)[C@H](CCCN=C(N)N)NC(=O)CNC(=O)[C@@H]1CCCN1C(=O)[C@H](Cc1ccccc1)NC(=O)[C@@H]1CCCN1C(=O)[C@H](CCCN=C(N)N)NC(=O)[C@@H]1CCCN1C(=O)[C@H](CCCN=C(N)N)NC(=O)CNC(=O)[C@@H]1CCCN1C(=O)[C@H](CO)NC(=O)[C@@H]1CCCN1C(=O)[C@H](Cc1c[nH]c2ccccc12)NC(=O)[C@H](CCCN=C(N)N)NC(=O)[C@@H](N)CO)C(=O)N[C@@H](Cc1ccccc1)C(=O)N[C@@H](CCCN=C(N)N)C(=O)N1CCC[C@H]1C(=O)N[C@@H](CCCN=C(N)N)C(=O)O [SRWPSPGRPRPFPGRPKPIFRPR]
MIC [26]: 0.8 µM (≈ 2.19 µg/mL)
MIC [4]: 6.3 µM (≈ 17.3 µg/mL)
MIC (Escherichia coli HB101): 3.1 µM (≈ 8.5 µg/mL)
MIC [14]: 12.5 µM (≈ 34.3 µg/mL)
MIC [27]: ≥ 100 µM
